pIC50: −log10 of the molar value. Where a name gives a salt, the structure may show the parent alone.
Molecular target: T1, hmGluR5a receptor (Homo sapiens, UniProt P41594)
T1 construct: expressed in transfected cells; host or cells: mouse fibroblast Ltk- cells (hmGluR5a/L38-20 cell line)
Assay: Calcium flux assay (fura-2, glutamate-evoked [Ca2+]i)
Type: cell-based
Details: hmGluR5a/L38-20 mouse fibroblast Ltk- cells; 10 μM glutamate (EC80); read-out: mGluR5 inhibitory activity, IC50
Protocol: The compounds of this invention were tested against the hmGluR5a receptor stably expressed in mouse fibroblast Ltk-cells (the hmGluR5a/L38-20 cell line) and activity was detected by changes in [Ca^++]i, measured using the fluorescent Ca^++-sensitive dye, fura-2. InsP assays were performed in mouse fibroblast Ltk^− cells (LM5a cell line) stably expressing hmGluR5a. The assays described in International Patent Publication WO 0116121 can be used.
The activity of compounds was examined against the hmGluR5a receptor stably expressed in mouse fibroblast Ltk− cells (the hmGluR5a/L38 cell line). See generally Daggett et al., Neuropharmacology 34:871-886 (1995). Receptor activity was detected by changes in intracellular calcium ([Ca^2+]i, measured using the fluorescent calcium-sensitive dye, fura-2. The hmGluR5a/L38-20 cells were plated onto 96-well plates, and loaded with 3 µM fura-2 for 1 h. Unincorporated dye was washed from the cells, and the cell plate was transferred to a 96-channel fluorimeter (SIBIA-SAIC, La Jolla, Calif.) which is integrated into a fully automated plate handling and liquid delivery system. Cells were excited at 350 and 385 nm with a xenon source combined with optical filters. Emitted light was collected from the sample through a dichroic mirror and a 510 nm interference filter and directed into a cooled CCD camera (Princeton Instruments). Image pairs were captured approximately every is, and ratio images were generated after background subtraction. After a basal reading of 20s, an EC80 concentration of glutamate (10 μM) was added to the well, and the response evaluated for another 60s. The glutamate-evoked increase in [Ca′]i in the presence of the screening compound was compared to the response of glutamate alone (the positive control).

T1 sequence (P41594 21-1180 isoform P41594-2 limits assumed): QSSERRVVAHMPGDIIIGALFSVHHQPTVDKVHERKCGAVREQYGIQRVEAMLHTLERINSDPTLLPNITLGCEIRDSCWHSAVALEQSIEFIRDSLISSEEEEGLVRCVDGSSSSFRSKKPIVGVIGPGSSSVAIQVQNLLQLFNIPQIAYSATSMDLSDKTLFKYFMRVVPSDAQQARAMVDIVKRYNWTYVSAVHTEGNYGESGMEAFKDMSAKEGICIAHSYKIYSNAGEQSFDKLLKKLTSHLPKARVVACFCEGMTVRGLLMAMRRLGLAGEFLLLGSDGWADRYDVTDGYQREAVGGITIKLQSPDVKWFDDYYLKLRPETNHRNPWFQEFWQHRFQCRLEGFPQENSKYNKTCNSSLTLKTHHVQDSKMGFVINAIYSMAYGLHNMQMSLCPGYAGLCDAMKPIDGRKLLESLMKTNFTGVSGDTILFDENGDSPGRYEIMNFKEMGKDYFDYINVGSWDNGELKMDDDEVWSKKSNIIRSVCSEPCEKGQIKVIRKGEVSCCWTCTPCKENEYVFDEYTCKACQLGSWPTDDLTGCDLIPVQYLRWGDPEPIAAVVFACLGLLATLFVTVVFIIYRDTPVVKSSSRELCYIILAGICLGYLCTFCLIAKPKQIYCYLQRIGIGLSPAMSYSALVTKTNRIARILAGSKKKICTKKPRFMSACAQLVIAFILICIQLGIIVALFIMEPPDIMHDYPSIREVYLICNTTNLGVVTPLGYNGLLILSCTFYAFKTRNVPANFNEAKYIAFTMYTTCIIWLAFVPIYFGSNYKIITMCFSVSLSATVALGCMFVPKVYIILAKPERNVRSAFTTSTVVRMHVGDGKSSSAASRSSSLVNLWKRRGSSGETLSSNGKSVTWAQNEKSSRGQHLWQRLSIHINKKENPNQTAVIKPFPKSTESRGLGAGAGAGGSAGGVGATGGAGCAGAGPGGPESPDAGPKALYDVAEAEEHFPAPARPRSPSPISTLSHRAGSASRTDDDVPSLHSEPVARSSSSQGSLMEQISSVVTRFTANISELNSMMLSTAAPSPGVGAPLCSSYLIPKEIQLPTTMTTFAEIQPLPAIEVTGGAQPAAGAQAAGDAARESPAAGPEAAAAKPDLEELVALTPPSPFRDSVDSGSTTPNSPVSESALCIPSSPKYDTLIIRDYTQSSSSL

| SMILES | pIC50 |
| --- | --- |
| Clc1cc(-c2cccnc2)cc(-n2cc(-c3ccccn3)cn2)c1 [Example 1, 2-[1-(3-chloro-5-pyridin-3-ylphenyl)-1H-pyrazol-4-yl]pyridine] | > 5.70 |
| Fc1cc(-c2nn[nH]n2)cc(-n2ccc(-c3ccccn3)n2)c1 [Example 2, 2-{1-[3-fluoro-5-(2H-tetraazol-5-yl)phenyl]-1H-pyrazol-3-yl}pyridine] | > 5.70 |
| Clc1cc(-c2cccnc2)cc(-c2cnn(-c3ccccn3)c2)c1 [Example 3, 2-[4-(3-chloro-5-pyridin-3-ylphenyl)-1H-pyrazol-1-yl]pyridine] | > 5.70 |
| c1ccc(-c2cnn(-c3cccc(-c4cccnc4)c3)c2)nc1 [Example 4] | > 5.70 |
| c1ccc(-c2cccc(-n3cc(-c4ccccn4)cn3)c2)nc1 [Example 5] | > 5.70 |
| c1ccc(-c2cccc(-n3cc(-c4ccccn4)cn3)c2)cc1 [Example 6] | > 5.70 |
| COc1cc(-c2cnn(-c3ccccn3)c2)ccc1-c1ccccn1 [Example 7] | > 5.70 |
| c1ccc(-c2cnn(-c3cccc(-c4cccnc4)n3)c2)nc1 [Example 8, 6-(4-pyridin-2-yl-1H-pyrazol-1-yl)-2,3′-bipyridine] | < 5.70 |
| c1ccc(-c2ccc(-n3ccc(-c4ccccn4)n3)cc2)cc1 [Example 9, 2-(1-biphenyl-4-yl-1H-pyrazol-3-yl)-pyridine hydrochloride] | < 5.70 |
| c1ccc(-c2cnn(-c3cccc(-c4ccncc4)c3)c2)nc1 [Example 10] | < 5.70 |
| c1ccc(-c2ccc(-n3cc(-c4ccccn4)cn3)cc2)nc1 [Example 11] | < 5.70 |
| c1ccc(-c2cnn(-c3ccc(-c4cccnc4)cc3)c2)nc1 [Example 12] | < 5.70 |
| Cc1ccncc1-c1cc(F)cc(-c2cnn(-c3ccccn3)c2)c1 [Example 13] | < 5.70 |
| Clc1cc(-c2cnn(-c3ccccn3)c2)cc(-n2ccc3ccncc32)c1 [Example 14] | < 5.70 |
| Fc1cc(-c2cnn(-c3ccccn3)c2)ccc1-c1ccccn1 [Example 15] | < 5.70 |
| c1ccc(-c2ccc(-n3cc(-c4ccccn4)cn3)cc2)cc1 [Example 16] | < 5.70 |

| SMILES | pIC50 |
| --- | --- |
| c1ccc(-c2ccccc2-n2cc(-c3ccccn3)cn2)cc1 [Example 17] | < 5.70 |
| c1ccc(-c2ccccc2-n2cc(-c3ccncn3)cn2)cc1 [Example 18] | < 5.70 |
| c1ccc(-c2cccc(-n3cc(-c4ccncn4)cn3)c2)cc1 [Example 19] | < 5.70 |
| c1ccc(-c2cnn(-c3ccc(C4CCCCC4)cc3)c2)nc1 [Example 20] | < 5.70 |
| c1cc(-c2cnn(-c3ccc(C4CCCCC4)cc3)c2)ncn1 [Example 21] | < 5.70 |
| c1ccc2nc(-c3cnn(-c4ccc(C5CCCCC5)cc4)c3)ccc2c1 [Example 22] | < 5.70 |
| c1ccc2nc(-c3cnn(-c4ccc(C5CCCCC5)cc4)c3)cnc2c1 [Example 23] | < 5.70 |
| Cc1cc(-c2cnn(-c3ccc(C4CCCCC4)cc3)c2)nc2ccccc12 [Example 24] | < 5.70 |
| c1ccc(-c2ccc(-n3cc(-c4ccncn4)cn3)cc2)cc1 [Example 25] | < 5.70 |
| Cc1cc(-c2cnn(-c3ccc(N4CCNC4=O)cc3)c2)nc2ccccc12 [Example 26] | < 5.70 |
| CN1CCN(c2ccc(-n3cc(-c4ccncn4)cn3)cc2)C1=O [Example 27] | < 5.70 |
| CN1CCN(c2ccc(-n3cc(-c4ccc5ccccc5n4)cn3)cc2)C1=O [Example 28] | < 5.70 |
| CN1CCN(c2ccc(-n3cc(-c4cnc5ccccc5n4)cn3)cc2)C1=O [Example 29] | < 5.70 |
| Cc1cc(-c2cnn(-c3ccc(N4CCN(C)C4=O)cc3)c2)nc2ccccc12 [Example 30] | < 5.70 |
| c1ccc(-c2cccc(-n3cc(-c4ccccn4)cn3)c2)cc1 [Example 31] | < 5.70 |
| c1ccc(-c2cccc(-c3cnn(-c4ccccn4)c3)c2)cc1 [Example 33] | < 5.70 |

From patent US20060194807A1, “Di-aryl substituted pyrazole modulators of metabotropic glutamate receptor-5” (priority 2003, published 2006)
